Data: PMC10600239, “Selective MCL-1 inhibitor ABBV-467 is efficacious in tumor models but is associated with cardiac troponin increases in patients” (Communications Medicine, 2023)
“And” between values parts separate entries of the source, which are not always exact repeats. Equal values may be shown once. Read-outs that look alike come from different tables or passages of the source.

Assays:
H929 cells = test: In vitro cell viability assay (CellTiter-Glo); type: cell-based, human
Protocol: All cell lines were grown and treated in RPMI 1640 or Dulbecco’s modified Eagle medium (Sigma, St. Louis, MO) supplemented with 10% fetal bovine serum (Gibco) or 10% human serum (Sigma) and maintained in a humidified incubator at 5% CO2 and 37 °C. DLD-1, MV4-11, NCI-H929 (all ATCC, Manassas, VA, USA) and AMO-1 (DSMZ, Braunschweig, Germany) cells were plated 4000 cells per well in 384-well tissue culture plates and treated with compounds of interest for 24 h at 37 °C, 5% CO2 humidified incubator. Each concentration was tested in duplicate at least 3 separate times. Adherent cells were allowed to adhere overnight prior to treatment. Alternatively, AMO-1 or NCI-H929 cells were treated with ABBV-467 for the indicated contact times (1–24 h) at 37 °C in a 5% CO2 humidified incubator and washed 3 times with compound-free media prior to incubation for the remainder of a 24-h treatment period. Cell viability was subsequently determined using CellTiter-Glo (Promega, Madison, WI, USA) according to the manufacturer’s instructions.
For in vitro viability assays, mean EC50 and EC90 values were determined from the resulting dose-response curves from at least 3 independent experiments, and depict the mean ± standard error of the mean.
Fig. 2 Apoptosis induced by ABBV-467 is mechanism based and induces cell death in MCL-1-dependent cell lines after short target engagement periods. H929 cells were treated with ABBV-467 in the presence or absence of the pan-caspase inhibitor z-VAD-fmk (50 µM) and the impact on caspase-3/7 activation (a), mitochondrial membrane potential (ΔΨm; b), and apoptosis (c) determined. Alternatively, BAK-deficient SKBR3 cells were treated with ABBV-467 for 24 h and the impact on cell viability compared with the parental cell line, determined by CellTiter-Glo. Inset depicts a western blot of BAK and BAX expression in SKBR3 cell variants using GAPDH as a loading control. Each of the 3 proteins were probed on separate blots (d). Data in (a–d) are presented as the mean ± standard error of the mean. H929 and AMO-1 cells were treated with ABBV-467 at the indicated concentrations and the impact on caspase-3/7 activation and viability (DRAQ7-positive) cells determined over time by Incucyte®. Data are presented as the mean ± standard deviation (e). H929 or AMO-1 cells were cultured in media containing 10% human serum and treated with ABBV-467 for the indicated contact times. Cells were subsequently washed 3 times with drug-free media and incubated in drug-free media for the remainder of the 24-h treatment period at 37 °C before cell viability was determined by CellTiter-Glo. Mean EC50 and EC90 values were determined from the resulting dose-response curves from at least 3 independent experiments, each assessed in quadruplicate, and depict the mean ± standard error of the mean. Presented ABBV-467 dose-response curves in H929 and AMO-1 cells were compiled from at least 3 independent experiments (f).

human MCL-1 = human MCL-1 (Homo sapiens, UniProt Q07820); test: Time-resolved FRET binding assay
Protocol: Test compounds were serially diluted in DMSO starting at […] (20× starting concentration; 100% DMSO followed by a 1:10 dilution of the compound DMSO plate into assay buffer); 10 µL of the compound in 10% DMSO was then transferred into a 384-well plate (low-volume Corning #3673 assay plate). Glutathione S-transferase (GST)-tagged recombinant BCL-2, BCL-XL, MCL-1, BCL-W, or BCL2-A1 protein (1 nM each) were mixed with 100 nM Oregon Green™-labeled f-BAK peptide probe and 1 nM Tb-labeled anti-GST antibody were mixed. Then 10 µL of a 2× protein/probe/antibody mix was added to each well of increasing concentrations of test compound in assay buffer (20 mM potassium phosphate, pH 7.6, 50 mM NaCl, 1 mM ethylenediaminetetraacetic acid disodium salt dihydrate, 0.05% pluronic acid F-68, 1 mM DL-dithiothreitol) at room temperature (final concentrations listed in Supplementary Table S2). The samples were then mixed on a shaker for 1 min and incubated for an additional 1 h at room temperature. For each assay plate, a probe/antibody and protein/antibody/probe mixture were included as a negative and a positive control, respectively. Fluorescence was measured on the EnVision™ (Perkin Elmer) using a 340/35-nm excitation filter and 520/525- (F-Bak) and 495/510-nm (Tb-labeled anti-glutathione S-transferase [GST] antibody) emission filters. Dissociation constants were determined using Wang’s equation[35]. The time-resolved FRET assay can be performed in the presence of varying concentrations of human serum to determine apparent half-maximal inhibitory concentration after serum protein binding.

Chain of human MCL-1 (Q07820 whole entry): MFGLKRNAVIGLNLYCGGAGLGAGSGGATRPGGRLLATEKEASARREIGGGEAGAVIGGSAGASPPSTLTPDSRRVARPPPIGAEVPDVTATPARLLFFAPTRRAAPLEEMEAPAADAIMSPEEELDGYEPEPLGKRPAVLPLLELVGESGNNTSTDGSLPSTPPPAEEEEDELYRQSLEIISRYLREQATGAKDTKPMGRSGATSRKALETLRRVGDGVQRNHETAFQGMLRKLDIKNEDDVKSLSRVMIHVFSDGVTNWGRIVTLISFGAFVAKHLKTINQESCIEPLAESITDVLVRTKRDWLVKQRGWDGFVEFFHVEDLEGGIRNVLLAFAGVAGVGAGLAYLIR

Question: With Cc1c(Cl)c2c(Cl)c(C)c1-c1c(-c3ccc(F)cc3)sc3ncnc(c13)O[C@@H](C(=O)O)Cc1cc(ccc1OCc1ccnc(-c3ccc(OC[C@H]4COCCO4)cc3)n1)OC[C@@H](CN1CCN(C)CC1)O2 [ABBV-467] as the molecule, how does the EC50 (H929 cells; Homo sapiens, NCI-H929, 10% human serum, contact time 1 hr, washout, viability at 24 h, read-out: H929 Mean EC50) read?
Answer: Its EC50 is 84.5 nM.

Question: What about the EC50 (H929 cells; Homo sapiens, NCI-H929, 10% human serum, contact time 2 hr, washout, viability at 24 h, read-out: H929 Mean EC50) of the same molecule?
Answer: Its EC50 is 61.8 nM.

Question: And the EC90 (H929 cells; Homo sapiens, NCI-H929, 10% human serum, contact time 2 hr, washout, viability at 24 h, read-out: H929 Mean EC90)?
Answer: The EC90 was 236 nM.

Question: What about the EC50 (H929 cells; Homo sapiens, NCI-H929, 10% human serum, contact time 4 hr, washout, viability at 24 h, read-out: H929 Mean EC50) of the same molecule?
Answer: The EC50 was 18.9 nM.

Question: What about the EC50 (H929 cells; Homo sapiens, NCI-H929, 10% human serum, contact time 6 hr, washout, viability at 24 h, read-out: H929 Mean EC50) of the same molecule?
Answer: Its EC50 is 11.7 nM.

Question: What about the EC90 (H929 cells; Homo sapiens, NCI-H929, 10% human serum, contact time 6 hr, washout, viability at 24 h, read-out: H929 Mean EC90) of the same molecule?
Answer: The EC90 was 108 nM.

Question: What about the EC50 (H929 cells; Homo sapiens, NCI-H929, 24 h, 10% human serum, contact time 24 hr, read-out: H929 Mean EC50) of the same molecule?
Answer: Its EC50 is 1.5 nM.

Question: And the EC90 (H929 cells; Homo sapiens, NCI-H929, 24 h, 10% human serum, contact time 24 hr, read-out: H929 Mean EC90)?
Answer: The EC90 was 5.6 nM.

Question: What about the EC50 (H929 cells; Homo sapiens, NCI-H929, 24 h, read-out: H929 EC50 (nM, 10% FBS), 10% FBS, 24 h continuous treatment) of the same molecule?
Answer: The EC50 was 0.4 nM.

Question: And the EC50 (H929 cells; Homo sapiens, NCI-H929, NCI-H929, arithmetic mean, read-out: Arithmetic Mean EC50 µM)?
Answer: The EC50 was 0.468 nM.

Question: And the EC90 (H929 cells; Homo sapiens, NCI-H929, read-out: H929 Mean EC90, 10% human serum, contact time 1 hr, washout, viability at 24 h)?
Answer: Its EC90 is 458 nM.

Question: What about the EC90 (H929 cells; Homo sapiens, NCI-H929, read-out: H929 Mean EC90, 10% human serum, contact time 4 hr, washout, viability at 24 h) of the same molecule?
Answer: Its EC90 is 133 nM.

Question: And the EC50 (H929 cells; NCI-H929, individual determinations, read-out: Individual EC50)?
Answer: Its EC50 is 0.595 nM and 0.693 nM and 0.692 nM and 0.364 nM and 0.531 nM and 0.29 nM and 0.314 nM and 0.373 nM and 0.366 nM and 0.36 nM and 0.313 nM and 0.717 nM and 0.472 nM.

Question: What about the EC50 (H929 cells; read-out: H929 EC50 (nM, 10% FBS), 10% FBS, 24 h continuous treatment) of the same molecule?
Answer: The EC50 was 0.47 nM.

Question: What about the Ki (human MCL-1; TR-FRET, arithmetic mean, read-out: Arithmetic Mean Ki, MCL1) of the same molecule?
Answer: Its Ki is less than 0.01 nM.

Question: And the Ki (human MCL-1; TR-FRET, individual determinations, read-out: Individual Ki, MCL1)?
Answer: Its Ki is less than 0.01 nM.

Question: What about the Ki (human MCL-1; read-out: TR-FRET, Ki, nM MCL-1) of the same molecule?
Answer: Its Ki is less than 0.01 nM.
